{"source": "paper PMC6030506", "about": "(Biochemistry, 2018)", "key": {"[1]": {"target": "T1, HDAC6 (catalytic domain 2, CD2) (Danio rerio, UniProt F8W4B7)", "T1 sequence (F8W4B7 440-798)": "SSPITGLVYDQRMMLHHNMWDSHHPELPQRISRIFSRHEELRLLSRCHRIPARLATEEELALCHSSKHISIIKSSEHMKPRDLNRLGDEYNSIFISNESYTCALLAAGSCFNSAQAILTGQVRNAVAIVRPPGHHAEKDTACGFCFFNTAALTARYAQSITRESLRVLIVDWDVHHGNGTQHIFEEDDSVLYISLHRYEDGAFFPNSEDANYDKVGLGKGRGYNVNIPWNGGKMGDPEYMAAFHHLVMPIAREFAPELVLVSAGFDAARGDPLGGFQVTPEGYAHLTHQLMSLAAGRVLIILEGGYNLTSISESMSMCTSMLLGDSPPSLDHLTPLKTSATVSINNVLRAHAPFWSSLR", "experiment": "ITC", "type": "binding", "details": "[…] HEPES pH […] KCl, […] glycerol, […] TCEP"}, "HDAC8": {"target": "T2, HDAC8 (Homo sapiens, UniProt Q9BY41)", "T2 sequence (Q9BY41 1-377)": "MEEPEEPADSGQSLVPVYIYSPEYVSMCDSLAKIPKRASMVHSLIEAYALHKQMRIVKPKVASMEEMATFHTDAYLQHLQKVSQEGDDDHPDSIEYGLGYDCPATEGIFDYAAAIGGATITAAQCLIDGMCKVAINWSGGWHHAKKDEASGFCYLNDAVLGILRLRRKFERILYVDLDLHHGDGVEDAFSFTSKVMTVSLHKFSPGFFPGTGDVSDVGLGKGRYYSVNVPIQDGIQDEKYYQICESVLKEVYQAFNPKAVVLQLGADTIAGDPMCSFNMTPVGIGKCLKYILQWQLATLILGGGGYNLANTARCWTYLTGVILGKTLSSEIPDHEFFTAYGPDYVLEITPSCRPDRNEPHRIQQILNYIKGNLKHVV", "experiment": "ITC", "type": "binding", "details": "[…] HEPES pH […] KCl, […] glycerol, […] TCEP"}}, "data": [{"smiles": "O=C(CCCCCCNC(=O)c1cnc(N(c2ccccc2)c2ccccc2)nc1)NO", "note": "[Ricolinostat]", "values": [{"measurement": "Kd", "setting": "[1]", "result": "the aliphatic hydroxamate inhibitor Ricolinostat"}]}, {"smiles": "O=C(CCCCCCC(=O)Nc1ccccc1)NO", "note": "[SAHA]", "values": [{"measurement": "Kd", "setting": "[1]", "result": "the aliphatic hydroxamate inhibitor suberoylanilide hydroxamic acid (SAHA)"}]}, {"smiles": "O=C(NO)c1ccc(CN(CCO)C(=O)Cc2ccccc2)cc1", "note": "[HPB]", "values": [{"measurement": "Kd", "setting": "HDAC8", "result": "we additionally studied the binding of the phenylhydroxamate derivative HPB"}, {"measurement": "Kd", "setting": "[1]", "result": "we additionally studied the binding of the phenylhydroxamate derivative HPB"}]}]}
